These results are taken from US7238716B2, “Alkanoic acid derivatives process for their production and use thereof” (Takeda Pharmaceuticals Company Limited, priority 2000, dated 2007).

In one data set the test system is KKAY mice. As to the kind of experiment: Hypoglycemic and hypolipidemic actions in mice (Test Example 1). The format is in vivo. The note with it: Mus musculus, po, 96 h, 0.005% in powdery diet, four days. The text has this:
Test compounds were mixed in a powdery diet (CE-2, Japan Clea) at the concentration of 0.01% (compounds of Examples 7, 26, 29, 32) or 0.005% (compounds of Examples 1, 11, 15, 18, 24, 36, 37, 41, 48, 50, 51, 52, 58, 62, 79, 83, 88, 90, 91, 92, 93, 97, 107, 110, 115, 119, 122, 125, 129 and 130), and freely given to KKAY mice (11 to 12 weeks old, 5 mice in a group), a model of type 2 diabetes mellitus, for four days. During this period, water was given freely. Blood was sampled from orbital venous plexus, and glucose and triglyceride levels in plasma separated from blood were determined enzymatically using L type Wako Glu2 (Wako Pure Chemical Industries, Ltd.) or L type Wako TG.H (Wako Pure Chemical Industries, Ltd.), respectively.
In the Table, “hypoglycemic action (%)” means a percent reduction (%) of the glucose level in the test compound administration group when that of the test compound non-administration group is taken as 100%. In addition, the “hypolipidemic action (%)” means a percent reduction (%) of the triglyceride level in the test compound administration group when that of the test compound non-administration group is taken as 100%.

The target in the next data set is T1, PPARγ-RXRα heterodimer (Homo sapiens, UniProt P37231).
T1 construct: expressed in transfected cells; host or cells: CHO-K1
T1 sequence (P37231 1-477 isoform P37231-2): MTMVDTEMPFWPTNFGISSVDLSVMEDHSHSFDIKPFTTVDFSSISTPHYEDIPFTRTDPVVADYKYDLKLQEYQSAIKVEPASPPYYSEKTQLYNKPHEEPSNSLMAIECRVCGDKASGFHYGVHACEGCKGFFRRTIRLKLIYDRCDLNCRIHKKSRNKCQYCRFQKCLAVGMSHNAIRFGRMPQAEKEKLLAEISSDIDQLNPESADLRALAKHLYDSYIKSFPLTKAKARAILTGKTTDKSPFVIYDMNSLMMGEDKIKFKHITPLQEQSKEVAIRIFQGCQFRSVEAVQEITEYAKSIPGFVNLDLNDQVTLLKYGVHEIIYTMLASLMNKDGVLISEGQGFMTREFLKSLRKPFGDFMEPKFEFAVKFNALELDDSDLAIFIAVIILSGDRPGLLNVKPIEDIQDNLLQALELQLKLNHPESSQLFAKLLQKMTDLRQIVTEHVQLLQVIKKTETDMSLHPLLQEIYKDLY
T1 sequence (P19793 1-462 partner): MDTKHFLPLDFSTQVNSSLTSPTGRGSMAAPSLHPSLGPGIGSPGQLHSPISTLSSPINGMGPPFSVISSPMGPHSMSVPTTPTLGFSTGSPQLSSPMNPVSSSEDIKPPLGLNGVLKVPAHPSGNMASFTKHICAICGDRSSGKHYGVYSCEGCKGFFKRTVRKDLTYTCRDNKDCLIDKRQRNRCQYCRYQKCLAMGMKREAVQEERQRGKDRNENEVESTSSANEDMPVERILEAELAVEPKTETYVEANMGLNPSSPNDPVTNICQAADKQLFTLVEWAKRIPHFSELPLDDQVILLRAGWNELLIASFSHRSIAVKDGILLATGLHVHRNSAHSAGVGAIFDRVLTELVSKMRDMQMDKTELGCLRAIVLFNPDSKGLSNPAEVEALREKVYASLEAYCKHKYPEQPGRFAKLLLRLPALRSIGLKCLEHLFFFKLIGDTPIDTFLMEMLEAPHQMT
Briefly: PPARγ-RXRα heterodimer ligand activity, luciferase reporter in PPARγ:RXRα:4ERPP/CHO-K1 cells (Test Example 3). It is filed as cell-based. The settings on record: concentration for 50% of the maximum fold induction of luciferase activity; 48 hours, CHO-K1 cells. As for the experimental part: A PPARγ:RXRα:4ERPP/CHO-K1 cells obtained in Reference Example 5 described later were cultured in HAM F12 medium (produced by NISSUI SEIYAKU) containing 10% Fetal bovine serum (produced by Life Technologies, Inc., USA) and then inoculated to a 96-well white plate (produced by Corning Costar Corporation, USA) at the density of 2×10^4 cells/well, and cultured in a CO2 gas incubator at 37° C. overnight.
After washing the 96 well white plate with PBS (Phosphate-buffered saline), 90 μl of HAM F12 medium containing 0.1% fatty acid-free bovine serum albumin (BSA) and 10 μl of test compound were added, which was cultured in a CO2 gas incubator at 37° C. for 48 hours. After removing the medium, 40 μl of PIKKAGENE 7.5 (produced by Wako Pure Chemical Industries, Ltd.) was added. After stirring, the luciferase activity was determined using Lumistar (produced by BMG Labtechnologies GmbH, Germany).
A fold induction was calculated based on the luciferase activity of each test compound by taking the luciferase activity in the test compound non administration group as 1. The values of the test compound, concentration and the fold induction were analyzed using PRISM 2.01 (produced by GraphPad Software Inc. USA) to calculate the EC50 values, the effective concentration of a test compound for 50% of the maximum fold induction.
After a CHO-K1 cell cultured in a 750 ml tissue culture flask (produced by Corning-Costar Corporation, USA) containing HAM F12 medium (produced by NISSUI SEIYAKU) supplemented with 10% Fetal Bovine Serum (produced by Life Technologies, Inc., USA) was scraped by treating with 0.5 g/L trypsin-0.2 g/L EDTA (ethylenediaminetetraacetic acid) (produced by Life Technologies, Inc., USA), the cell was washed with PBS (phosphate buffered saline) (produced by Life Technologies, Inc., USA), centrifuged (1000 rpm, 5 minutes), and then suspended in PBS. Subsequently, a DNA was introduced into the cell under the condition shown below using GENE PULSER (produced by Bio-Rad Laboratories, USA).
Namely, to a cuvette having a 0.4 cm gap, added were 8×10^6 cells and 10 μg of plasmid pVgRXR2-hPPARγ obtained in Reference Example 3 and 10 μg of reporter plasmid pGL3-4ERPP-TK neo obtained in Reference Example 4, which was subjected to electroporation at the voltage of 0.25 kV under the capacitance of 960 μF. Subsequently, the cell was transferred into a HAM F12 medium containing 10% Fetal Bovine. Serum and cultured for 24 hours. Then the cell was scraped again and centrifuged, and then suspended in HAM F12 medium containing 10% Fetal Bovine Serum supplemented with 500 μg/ml of GENETICIN (produced by Life Technologies, Inc., USA) and 250 μg/ml of ZEOCIN (produced by Invitrogen, USA). The suspension was diluted to the density of 10^4 cells/ml, and inoculated to a 96-well plate (produced by Corning Costar Corporation, USA), which was cultured in a CO2 gas incubator at 37° C., whereby obtaining a GENETICIN- and ZEOCIN-resistant transformant.
Subsequently, after the transformant cell line thus obtained was cultured in a 24-well plate (produced by Corning Costar Corporation, USA), selected was a cell line, PPARγ:RXRα:4ERPP/CHO-K1 cell, in which the luciferase was expressed and induced by addition of 10 μM pioglitazone hydrochloride.

[1] abbreviates: percent reduction of plasma glucose level vs non-administration group, read-out: hypoglycemic action (%).
Setting [2] is: percent reduction of plasma triglyceride level vs non-administration group, read-out: hypolipidemic action (%).

Like-named read-outs stand apart in the source and are kept apart here.

One may read the EC50 as the midpoint of the concentration-response curve. As a reminder, the melting point is the temperature of the solid-liquid transition.

In turn, `Cc1sc(-c2ccccc2)nc1COc1ccc(COc2ccccc2CC(=O)O)cn1` [Example 122, 2-[2-[[6-[(5-methyl-2-phenyl-4-thiazolyl)methoxy]-3-pyridyl]methoxy]phenyl]acetic acid] returned a melting point of 173 to 174 °C. Moreover, the inhibition in vivo at 0.005 % in the data set with KKAY mice (setting [1]) was 52%. The inhibition in vivo at 0.005 % in the data set on KKAY mice (setting [2]) is 67%. Further, the EC50 on PPARγ-RXRα heterodimer was found to be 17 nM.
Taken in the same sequence, the figures for `Cc1oc(-c2ccccc2)nc1COc1ccc(OCc2ncccc2CC(=O)O)cc1` [Example 125, 2-[2-[[4-[(5-methyl-2-phenyl-4-oxazolyl)methoxy]phenoxy]methyl]-3-pyridyl]acetic acid] were 126 to 127 °C, 41%, 40% and 130 nM.
